Reference: PubChem BioAssay AID1996
Converted amounts (≈) assume the structure as drawn.

conditions: buffer; pH 7.4; 200.0 µM

| SMILES | solubility kinetic [µg/mL] |
| --- | --- |
| CC(=O)Nc1cccc(OCCCNS(=O)(=O)c2ccc(C#N)cc2)c1 | > 56 |
| CN(C)c1ccc(NC(=O)C[n+]2ccccc2)cc1.[Cl-] | > 43.8 |
| Cn1cc(CCC(=O)NCc2cccc(Cl)c2)c2ccccc21 | 9.9 (≈ 30.3 µM) |
| Cc1ccc(S(=O)(=O)N2CCC[C@H]2C(=O)OCc2cc(=O)oc3cc(C)ccc23)cc1 | 7.3 (≈ 16.5 µM) |
| Cc1ccc(Cl)c(NC(=O)COC(=O)c2cc[n+]([O-])cc2)c1Cl | > 53.3 |
| CCOc1ccccc1C1CC(=O)Nc2cc(OC)c(OC)cc21 (configuration not stated) | 0.9 (≈ 2.75 µM) |
| N#CC(c1ccccc1)N1CCOCC1 (configuration not stated) | 20.7 (≈ 102 µM) |
| Cl.c1ccc(C2CNCCc3ccccc32)cc1 (configuration not stated) | > 39 |
| Cc1ccc(NC(=O)c2cccnc2)cc1S(=O)(=O)N(C)C | > 47.9 |
| COc1ccc(C)cc1NC(=S)NC12CN3CN(CN(C3)C1)C2 | > 50 |
| O=C(Nc1ccc(CN2CCCCC2)cc1)c1cccc(F)c1 | 44.7 (≈ 143 µM) |
| O/N=C1\CCSc2ccc(F)cc21 | 23.4 (≈ 119 µM) |
| CC(=O)c1ccc(NC(=O)CN2C(=O)NC3(CCCc4ccccc43)C2=O)cc1 (configuration not stated) | > 58.7 |
| CC(=O)Oc1ccc2occ(/C=N/c3cc(=O)[nH]c(=S)[nH]3)c(=O)c2c1 | > 53.6 |
| Cc1nc(SCc2ccccc2)c2ccsc2n1 | < 0.3 |
| O=C(COC(=O)CNC(=O)C1CCCCC1)Nc1cccc(F)c1 | > 50.5 |
| Cc1ccc(CNC(=O)CCc2c(C)[nH]c(=O)c(C#N)c2C)cc1 | > 48.5 |
| COC(=O)c1sccc1-n1cccc1C(=O)C(=O)N1CCOCC1 | 46.3 (≈ 133 µM) |
| COc1ccc(C2C(C#N)=C(N)Oc3cccc(O)c32)cc1 (configuration not stated) | 9.6 (≈ 32.6 µM) |
| CCc1ccccc1NC(=O)N1CCc2ccccc2C1 | > 42.1 |
| Cc1ccc(OC(=O)c2cncc(Br)c2)c(C)c1 | 6.8 (≈ 22.2 µM) |
| O=c1cc(-c2ccccc2)c2cc(Cl)ccc2[nH]1 | < 0.5 |
| COc1cc2c(cc1OC)C(C)N(C(=O)c1cc(Cl)nc(Cl)c1)CC2 (configuration not stated) | 17.1 (≈ 44.9 µM) |
| O=C(Nc1ccsc1C(=O)O)c1ccccc1 | > 37.1 |

| SMILES | solubility kinetic [µg/mL] |
| --- | --- |
| COc1ccc(/C=C/C(=O)O)cc1S(=O)(=O)NCc1cccnc1 | > 52.3 |
| CC1(C)SC[C@H](C(=O)Nc2cccc(Cl)c2)N1C=O | > 44.8 |
| COc1ccc(NC(=O)c2cc3cc(C)ccc3n2C)c(OC)c1 | 2.7 (≈ 8.32 µM) |
| Cc1ccc(C2CC(=O)NC(SCC(N)=O)=C2C#N)s1 (configuration not stated) | > 46.1 |
| COc1ccc(-c2c(NCCc3ccccc3)c(=O)c2=O)cc1 | 1 (≈ 3.25 µM) |
| CC[N+](C)(C)Cc1ccccc1Br.Cc1ccc(S(=O)(=O)[O-])cc1 | > 62.2 |
| Cc1cc(C(=O)NC2=NCCS2)c2ccccc2n1 | > 40.7 |
| COc1ccc(N/C=C\C(=O)c2ccc3ccccc3c2)cc1 | < 0.6 |
| CCCn1c(=O)c(C(=O)NC(C)c2ccccc2)c(O)c2ccccc21 (configuration not stated) | 1.3 (≈ 3.71 µM) |
| CCOc1ncccc1C(=O)Nc1nc(SC)ns1 | 7.8 (≈ 26.3 µM) |
| CCc1nnc(NC(=O)C2CSC3(C)CCC(=O)N23)s1 (configuration not stated) | > 46.9 |
| CCOC(=O)C1CCN(S(=O)(=O)c2ccccc2)CC1 | > 44.6 |
| O=c1[nH]c(=S)n(-c2ccccc2F)c(O)c1C=NCCN1CCNCC1 | 55.3 (≈ 147 µM) |
| C=CCNC(=O)/C(=C/c1cccc([N+](=O)[O-])c1)NC(=O)c1ccco1 | 43.3 (≈ 127 µM) |
| O=C(NC1CC1)c1nc(Cn2cc([N+](=O)[O-])cn2)no1 | > 41.7 |
| Cc1ccnc(SC2CC(=O)N(c3ccc(Br)cc3)C2=O)n1 (configuration not stated) | 44.1 (≈ 117 µM) |
| Cc1nc2ccccc2n1CC(=O)c1ccccc1 | 37 (≈ 148 µM) |
| CCc1cc(=O)[nH]c(SCc2cccnc2)n1 | > 37.1 |
| Nc1nc(CCOc2ccc(F)cc2)cs1 | 34.3 (≈ 144 µM) |
| CC(C)(C)c1ccccc1OCC(=O)NCc1ccccc1 | 1.8 (≈ 6.05 µM) |
| O=C(COc1ccc(F)cc1F)N1CCCCCCC1 | > 42.5 |
| CCC1(c2ccc(F)cc2)NC(=O)N(CC(=O)NC2CCCCCC2)C1=O (configuration not stated) | 10.4 (≈ 27.7 µM) |
| CC(=O)c1ccc(N2CCN(Cc3nc4ccccc4[nH]3)CC2)cc1 | 29.8 (≈ 89.1 µM) |
